Key:
[1] = Selectivity index, ratio of cytotoxic EC50 for HEK293 cells to IC50 for human neutrophil elastase
Neutrophil elastase = biological target: T1, Neutrophil elastase (Homo sapiens, UniProt P08246); test: Inhibition of human neutrophil elastase pre-incubated for 30 mins before MeO-Suc-Ala-Ala-Pro-Val-AMC substrate addition by fluorometric assay
T1 sequence (P08246 whole entry): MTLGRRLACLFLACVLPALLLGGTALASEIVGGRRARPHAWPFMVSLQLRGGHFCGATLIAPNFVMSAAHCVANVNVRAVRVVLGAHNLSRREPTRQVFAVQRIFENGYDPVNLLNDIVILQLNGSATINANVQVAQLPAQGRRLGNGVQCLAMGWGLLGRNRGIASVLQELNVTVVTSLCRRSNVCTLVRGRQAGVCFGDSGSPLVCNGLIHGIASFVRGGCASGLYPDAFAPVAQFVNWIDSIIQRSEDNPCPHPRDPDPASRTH

HEK293 = test: Cytotoxicity against HEK293 cells; details: Homo sapiens

Row | Structure (SMILES) | Selectivity Index [1] | IC50 (Neutrophil elastase) [µM] | EC50 (HEK293) [µM]
1 | CN(C)c1ccc(/C=C2\Oc3ccccc3C2=O)cc1 | >20 | 2.9 | > 100
2 | CN(C)c1ccc(/C=C2\Oc3cc(O)ccc3C2=O)cc1 | >20 | 5.1 | > 100
3 | O=C1/C(=C/c2ccc(Br)cc2)Oc2ccccc21 | – | – | > 100
4 | O=C1/C(=C/c2cccc(Br)c2)Oc2ccccc21 | >20 | > 10 | > 100
5 | O=C1/C(=C/c2ccccc2Br)Oc2ccccc21 | – | – | > 100
6 | O=C1/C(=C/c2ccc(-c3ccccc3)cc2)Oc2ccccc21 | – | – | > 100
7 | O=C1/C(=C/c2ccc(-c3ccc(F)cc3)cc2)Oc2ccccc21 | – | – | > 100
8 | O=C1/C(=C/c2ccc(-c3ccc(Cl)cc3)cc2)Oc2ccccc21 | – | – | > 100
9 | O=Cc1ccc(-c2ccc(/C=C3\Oc4ccccc4C3=O)cc2)cc1 | – | – | > 100
10 | O=C1/C(=C/c2ccc(Cc3ccccc3)cc2)Oc2ccccc21 | – | – | > 100
11 | O=C1/C(=C/c2ccc(-c3cnc4ccccc4c3)cc2)Oc2ccccc21 | – | – | > 100
12 | Nc1ccc(-c2ccc(/C=C3\Oc4ccccc4C3=O)cc2)cn1 | – | – | > 100
13 | O=C1/C(=C/c2ccc(Nc3ccccc3)cc2)Oc2ccccc21 | – | – | > 100
14 | O=C1/C(=C/c2ccc(NCc3ccccc3)cc2)Oc2ccccc21 | – | – | > 100
15 | Cc1ccc(Oc2ccc(/C=C3\Oc4ccccc4C3=O)cc2)cc1 | >20 | > 10 | > 100
16 | O=C1/C(=C/c2ccc(Oc3ccc(Cl)cc3)cc2)Oc2ccccc21 | – | – | > 100
17 | O=C1/C(=C/c2cccc(-c3ccccc3)c2)Oc2ccccc21 | – | – | > 100
18 | O=C1/C(=C/c2cccc(-c3ccc(Cl)cc3)c2)Oc2ccccc21 | – | – | > 100
19 | O=Cc1ccc(-c2cccc(/C=C3\Oc4ccccc4C3=O)c2)cc1 | – | – | > 100
20 | O=C1/C(=C/c2cccc(Cc3ccccc3)c2)Oc2ccccc21 | – | – | > 100
21 | COc1cccc2c1O/C(=C\c1ccccc1)C2=O | – | – | > 100
22 | Cc1ccc(Oc2ccc(/C=C3\Oc4cc(O)ccc4C3=O)cc2)cc1 | – | – | > 100
23 | O=C1/C(=C/c2ccc(Oc3ccc(Cl)cc3)cc2)Oc2cc(O)ccc21 | – | – | > 100
24 | O=C1/C(=C/c2cccc(-c3cnc4ccccc4c3)c2)Oc2ccccc21 | – | – | > 100
25 | O=C1/C(=C/c2ccccc2)Oc2cc(O)ccc21 | – | – | > 100

Source: ChEMBL document CHEMBL3751722, “Discovery of C-shaped aurone human neutrophil elastase inhibitors” (Medchemcomm, 2015)
